# Data taken from publication PMC5218480 (PLoS ONE, 2017).
# Tested on: MV-4-11 cells
# Assay: Gene expression microarray analysis (Affymetrix PrimeView) and GSEA
# Assay type: cell-based, human
# Parameters: RFU PODN (11730768_x_at) / Fold change /veh PODN (11730768_x_at) / RFU LINC00158 (11744669_a_at) / Fold change /veh LINC00158 (11744669_a_at) / RFU DUSP10 (11751237_a_at) / Fold change /veh DUSP10 (11751237_a_at) / RFU ID3 (11757404_x_at) / Fold change /veh ID3 (11757404_x_at) / RFU PLEKHG5 (11737974_s_at) / Fold change /veh PLEKHG5 (11737974_s_at) / RFU LRRC4B (11730491_at) / Fold change /veh LRRC4B (11730491_at) / RFU GIMAP4 (11747438_a_at) / Fold change /veh GIMAP4 (11747438_a_at) / RFU KRT8 (11758183_x_at) / Fold change /veh KRT8 (11758183_x_at) / RFU CNN1 (11734310_a_at) / Fold change /veh CNN1 (11734310_a_at) / RFU VPS37D (11726825_at) / Fold change /veh VPS37D (11726825_at) / RFU C10orf10 (11716522_x_at) / Fold change /veh C10orf10 (11716522_x_at) / RFU KIR2DL2 /// KIR2DL4 /// KIR2DL5A /// KIR2DL5B /// KIR2DS1 /// KIR2DS2 /// KIR2DS3 /// KIR2DS4 /// KIR3DL3 /// KIR3DL3 /// KIR3DS1 (11738374_at) / Fold change /veh KIR2DL2 /// KIR2DL4 /// KIR2DL5A /// KIR2DL5B /// KIR2DS1 /// KIR2DS2 /// KIR2DS3 /// KIR2DS4 /// KIR3DL3 /// KIR3DL3 /// KIR3DS1 (11738374_at) / RFU C1QL1 (11718748_at) / Fold change /veh C1QL1 (11718748_at) / RFU TMPRSS4 (11747572_a_at) / Fold change /veh TMPRSS4 (11747572_a_at) / RFU HAMP (11756126_x_at) / Fold change /veh HAMP (11756126_x_at) / RFU RNFT2 (11725882_a_at) / Fold change /veh RNFT2 (11725882_a_at) / RFU NR4A2 (11747474_a_at) / Fold change /veh NR4A2 (11747474_a_at) / RFU ABCC12 (11746883_a_at) / Fold change /veh ABCC12 (11746883_a_at) / RFU TMEM136 (11760407_x_at) / Fold change /veh TMEM136 (11760407_x_at) / RFU CLDN22 /// WWC2 (11732394_at) / Fold change /veh CLDN22 /// WWC2 (11732394_at) / RFU HLA-DPB1 (11760878_x_at) / Fold change /veh HLA-DPB1 (11760878_x_at) / RFU SPINT1 (11716480_a_at) / Fold change /veh SPINT1 (11716480_a_at) / RFU GAP43 (11754022_s_at) / Fold change /veh GAP43 (11754022_s_at) / RFU A4GNT (11735810_at) / Fold change /veh A4GNT (11735810_at) / RFU PRB3 (11715151_x_at) / Fold change /veh PRB3 (11715151_x_at) / RFU TUBB4B (11761932_at) / Fold change /veh TUBB4B (11761932_at) / RFU CAPN14 (11732068_a_at) / Fold change /veh CAPN14 (11732068_a_at) / RFU TMCC2 (11721928_a_at) / Fold change /veh TMCC2 (11721928_a_at) / RFU IRGQ (11745062_a_at) / Fold change /veh IRGQ (11745062_a_at) / RFU FAM174B (11720279_a_at) / Fold change /veh FAM174B (11720279_a_at) / RFU TMPRSS4 (11748680_a_at) / Fold change /veh TMPRSS4 (11748680_a_at) / RFU FAM212B (11763350_a_at) / Fold change /veh FAM212B (11763350_a_at) / RFU PLEKHG5 (11743358_a_at) / Fold change /veh PLEKHG5 (11743358_a_at) / RFU ZSCAN30 (11745921_a_at) / Fold change /veh ZSCAN30 (11745921_a_at) / RFU CMKLR1 (11741424_a_at) / Fold change /veh CMKLR1 (11741424_a_at) / RFU LOC101060620 /// MAPK8IP1 (11723275_at) / Fold change /veh LOC101060620 /// MAPK8IP1 (11723275_at) / RFU SPTSSB (11747773_x_at) / Fold change /veh SPTSSB (11747773_x_at) / RFU PRSS12 (11739890_at) / Fold change /veh PRSS12 (11739890_at) / RFU BIN1 (11741810_x_at) / Fold change /veh BIN1 (11741810_x_at) / RFU WNT11 (11732464_a_at) / Fold change /veh WNT11 (11732464_a_at) / RFU C10orf10 (11716521_a_at) / Fold change /veh C10orf10 (11716521_a_at) / RFU C5orf56 (11738089_at) / Fold change /veh C5orf56 (11738089_at) / RFU CYB561 (11721691_x_at) / Fold change /veh CYB561 (11721691_x_at) / RFU ANKRD19P (11752326_a_at) / Fold change /veh ANKRD19P (11752326_a_at) / RFU OR2T12 /// OR2T33 /// OR2T8 (11738714_s_at) / Fold change /veh OR2T12 /// OR2T33 /// OR2T8 (11738714_s_at) / RFU VCAN (11748164_a_at) / Fold change /veh VCAN (11748164_a_at) / RFU JSRP1 (11732532_at) / Fold change /veh JSRP1 (11732532_at) / RFU KRTAP10-11 (11738290_x_at) / Fold change /veh KRTAP10-11 (11738290_x_at) / RFU MYO3A (11730013_a_at) / Fold change /veh MYO3A (11730013_a_at) / RFU EBF3 (11725865_a_at) / Fold change /veh EBF3 (11725865_a_at) / RFU CAMK2N1 (11719241_x_at) / Fold change /veh CAMK2N1 (11719241_x_at) / RFU C5orf56 (11738088_a_at) / Fold change /veh C5orf56 (11738088_a_at) / RFU OLFML3 (11715873_a_at) / Fold change /veh OLFML3 (11715873_a_at) / RFU LOC100653217 /// NTM (11731650_a_at) / Fold change /veh LOC100653217 /// NTM (11731650_a_at) / RFU MAPK11 (11762145_a_at) / Fold change /veh MAPK11 (11762145_a_at) / RFU FIZ1 (11724087_x_at) / Fold change /veh FIZ1 (11724087_x_at) / RFU OASL (11726364_x_at) / Fold change /veh OASL (11726364_x_at) / RFU SOX15 (11748057_x_at) / Fold change /veh SOX15 (11748057_x_at) / RFU CD79A (11719716_a_at) / Fold change /veh CD79A (11719716_a_at) / RFU HIST1H1D (11736915_at) / Fold change /veh HIST1H1D (11736915_at) / RFU CASKIN2 (11723855_a_at) / Fold change /veh CASKIN2 (11723855_a_at) / RFU LOC730098 (11760151_x_at) / Fold change /veh LOC730098 (11760151_x_at) / RFU OR4N2 (11742367_at) / Fold change /veh OR4N2 (11742367_at) / RFU PRRT2 (11749266_a_at) / Fold change /veh PRRT2 (11749266_a_at) / RFU SNX32 (11753110_a_at) / Fold change /veh SNX32 (11753110_a_at) / RFU CDHR5 (11726645_a_at) / Fold change /veh CDHR5 (11726645_a_at) / RFU RCAN1 (11760418_a_at) / Fold change /veh RCAN1 (11760418_a_at) / RFU FAM167A (11723789_a_at) / Fold change /veh FAM167A (11723789_a_at) / RFU FAM26E (11764081_at) / Fold change /veh FAM26E (11764081_at) / RFU ISYNA1 (11749810_s_at) / Fold change /veh ISYNA1 (11749810_s_at) / RFU ACY1 (11761880_at) / Fold change /veh ACY1 (11761880_at) / RFU 11764098_at / Fold change /veh 11764098_at / RFU SAMD14 (11745864_x_at) / Fold change /veh SAMD14 (11745864_x_at) / RFU NPB (11741838_a_at) / Fold change /veh NPB (11741838_a_at) / RFU TMPRSS6 (11731388_a_at) / Fold change /veh TMPRSS6 (11731388_a_at) / RFU KRTAP10-2 (11738614_at) / Fold change /veh KRTAP10-2 (11738614_at) / RFU ARHGAP8 /// PRR5-ARHGAP8 (11727945_x_at) / Fold change /veh ARHGAP8 /// PRR5-ARHGAP8 (11727945_x_at) / RFU KRTAP5-7 /// NADSYN1 (11734609_at) / Fold change /veh KRTAP5-7 /// NADSYN1 (11734609_at) / RFU RASL12 (11751679_a_at) / Fold change /veh RASL12 (11751679_a_at) / RFU CDKN2B (11736163_a_at) / Fold change /veh CDKN2B (11736163_a_at) / RFU PRF1 (11729649_at) / Fold change /veh PRF1 (11729649_at) / RFU, ZNF638 /// ZNF638-IT1 / Fold change vs veh, ZNF638 /// ZNF638-IT1 / RFU, PANK3 / Fold change vs veh, PANK3 / RFU, SH3YL1 / Fold change vs veh, SH3YL1 / RFU, ZEB2 / Fold change vs veh, ZEB2 / RFU, NRIP1 / Fold change vs veh, NRIP1 / RFU, PTTG1IP / Fold change vs veh, PTTG1IP / RFU, CAPN2 / Fold change vs veh, CAPN2 / RFU, MED14 / Fold change vs veh, MED14 / RFU, SNORA58 / Fold change vs veh, SNORA58 / RFU, C1orf63 / Fold change vs veh, C1orf63 / RFU, LRRFIP1 / Fold change vs veh, LRRFIP1 / RFU, NDUFAF7 / Fold change vs veh, NDUFAF7 / RFU, SLC12A2 / Fold change vs veh, SLC12A2 / RFU, IBTK / Fold change vs veh, IBTK / RFU, ESF1 / Fold change vs veh, ESF1 / Fold change vs veh, TMEM50B / RFU, TAOK1 / Fold change vs veh, TAOK1 / RFU, ACBD3 / Fold change vs veh, ACBD3 / RFU, TMA16 / Fold change vs veh, TMA16 / RFU, RWDD3 / Fold change vs veh, RWDD3 / RFU, BCAT1 / Fold change vs veh, BCAT1 / RFU, EDEM3 / Fold change vs veh, EDEM3 / RFU, TMEM33 / Fold change vs veh, TMEM33 / RFU, WDR75 / Fold change vs veh, WDR75 / RFU, AHCTF1 / Fold change vs veh, AHCTF1 / RFU, TFRC / Fold change vs veh, TFRC / RFU, ZDHHC17 / Fold change vs veh, ZDHHC17 / RFU, NOM1 / Fold change vs veh, NOM1 / RFU, ARL8B / Fold change vs veh, ARL8B / RFU, ZBTB11 / Fold change vs veh, ZBTB11 / RFU, TAMM41 / Fold change vs veh, TAMM41 / RFU, KIAA1704 /// LOC100996395 / Fold change vs veh, KIAA1704 /// LOC100996395 / RFU, ING1 / Fold change vs veh, ING1 / RFU, TRMT61B / Fold change vs veh, TRMT61B / RFU, FUBP3 / Fold change vs veh, FUBP3 / RFU, TP53 / Fold change vs veh, TP53 / RFU, TNKS2 / Fold change vs veh, TNKS2 / RFU, ZFP14 / Fold change vs veh, ZFP14 / RFU, ACTR2 / Fold change vs veh, ACTR2 / RFU, PPP3R1 / Fold change vs veh, PPP3R1 / RFU, PIK3R1 / Fold change vs veh, PIK3R1 / RFU, HNRNPA1 / Fold change vs veh, HNRNPA1 / RFU, RNF170 / Fold change vs veh, RNF170 / RFU, ZNF28 / Fold change vs veh, ZNF28 / RFU, RNGTT / Fold change vs veh, RNGTT / RFU, OGT / Fold change vs veh, OGT / RFU, BRD1 / Fold change vs veh, BRD1 / RFU, MARS / Fold change vs veh, MARS / RFU, ZNF655 / Fold change vs veh, ZNF655 / RFU, FAHD1 / Fold change vs veh, FAHD1 / RFU, BDP1 / Fold change vs veh, BDP1 / RFU, LRRCC1 / Fold change vs veh, LRRCC1 / RFU, ARID1A / Fold change vs veh, ARID1A / RFU, ZNF146 / Fold change vs veh, ZNF146 / RFU, ZNF330 / Fold change vs veh, ZNF330 / RFU, GPN3 / Fold change vs veh, GPN3 / RFU, C9orf123 / Fold change vs veh, C9orf123 / RFU, N4BP2L2 / Fold change vs veh, N4BP2L2 / RFU, ARFIP1 / Fold change vs veh, ARFIP1 / RFU, FAM179B / Fold change vs veh, FAM179B / RFU, BCL10 / Fold change vs veh, BCL10 / RFU, UHRF1BP1L / Fold change vs veh, UHRF1BP1L / RFU, BET1 / Fold change vs veh, BET1 / RFU, CNOT2 / Fold change vs veh, CNOT2 / RFU, ZNF268 / Fold change vs veh, ZNF268 / Fold change vs veh, ZNF507 / RFU, DGCR2 / Fold change vs veh, DGCR2 / RFU, WDSUB1 / Fold change vs veh, WDSUB1 / Fold change vs veh, HSP90B1 /// MIR3652 / RFU, ADSS / Fold change vs veh, ADSS / RFU, GK / Fold change vs veh, GK / RFU, ZNF148 / Fold change vs veh, ZNF148 / RFU, TAF9 / Fold change vs veh, TAF9 / RFU, SLC1A5 / Fold change vs veh, SLC1A5 / RFU, SLMO2 / Fold change vs veh, SLMO2 / RFU, ABCC4 / Fold change vs veh, ABCC4 / RFU, LOC101060439 /// RAP1B / Fold change vs veh, LOC101060439 /// RAP1B / RFU, RFX7 / Fold change vs veh, RFX7 / RFU, GTPBP10 / Fold change vs veh, GTPBP10 / RFU, CNEP1R1 / Fold change vs veh, CNEP1R1 / RFU, BIVM-ERCC5 /// ERCC5 / Fold change vs veh, BIVM-ERCC5 /// ERCC5 / RFU, ILF3 / Fold change vs veh, ILF3 / RFU 11762660_at / Fold change /veh 11762660_at / RFU VCAN (11757783_s_at) / Fold change /veh VCAN (11757783_s_at) / RFU DDX43 (11728927_at) / Fold change /veh DDX43 (11728927_at) / RFU KRT8 (11758188_x_at) / Fold change /veh KRT8 (11758188_x_at) / RFU NKD1 (11759106_at) / Fold change /veh NKD1 (11759106_at) / RFU SRD5A1 (11742802_a_at) / Fold change /veh SRD5A1 (11742802_a_at) / RFU TPSAB1 /// TPSB2 (11721975_s_at) / Fold change /veh TPSAB1 /// TPSB2 (11721975_s_at) / RFU GSTM3 (11746129_a_at) / Fold change /veh GSTM3 (11746129_a_at) / RFU IL23R (11737362_x_at) / Fold change /veh IL23R (11737362_x_at) / RFU TMEM51 (11727254_a_at) / Fold change /veh TMEM51 (11727254_a_at) / RFU PIWIL2 (11732686_x_at) / Fold change /veh PIWIL2 (11732686_x_at) / RFU ORM1 (11744905_x_at) / Fold change /veh ORM1 (11744905_x_at) / RFU CCDC152 (11743942_at) / Fold change /veh CCDC152 (11743942_at) / RFU ECM1 (11717891_a_at) / Fold change /veh ECM1 (11717891_a_at) / RFU IL23R (11748794_a_at) / Fold change /veh IL23R (11748794_a_at) / RFU TNFAIP8L3 (11732012_x_at) / Fold change /veh TNFAIP8L3 (11732012_x_at) / RFU MBOAT4 (11741988_at) / Fold change /veh MBOAT4 (11741988_at) / RFU 11764193_at / Fold change /veh 11764193_at / RFU TMEM53 (11763286_at) / Fold change /veh TMEM53 (11763286_at) / RFU MAGEB2 (11727129_at) / Fold change /veh MAGEB2 (11727129_at) / RFU TMEM200A (11744735_a_at) / Fold change /veh TMEM200A (11744735_a_at) / RFU CCDC152 (11751479_a_at) / Fold change /veh CCDC152 (11751479_a_at) / RFU FAM211A (11726209_a_at) / Fold change /veh FAM211A (11726209_a_at) / RFU RGS16 (11746705_a_at) / Fold change /veh RGS16 (11746705_a_at) / RFU VCAN (11755009_s_at) / Fold change /veh VCAN (11755009_s_at) / RFU RHOB (11743442_s_at) / Fold change /veh RHOB (11743442_s_at) / RFU RGS16 (11720943_a_at) / Fold change /veh RGS16 (11720943_a_at) / RFU RGS16 (11720944_at) / Fold change /veh RGS16 (11720944_at) / RFU, VPS4B / Fold change vs veh, VPS4B / RFU, CREB1 / Fold change vs veh, CREB1 / RFU, DNAJC13 / Fold change vs veh, DNAJC13 / RFU, GNAQ / Fold change vs veh, GNAQ / RFU, CDK5R1 / Fold change vs veh, CDK5R1 / RFU, ZRANB3 / Fold change vs veh, ZRANB3 / RFU, CUL4A / Fold change vs veh, CUL4A / RFU, CCNY / Fold change vs veh, CCNY / RFU, UFL1 / Fold change vs veh, UFL1 / RFU, COG3 / Fold change vs veh, COG3 / RFU, DIAPH2 / Fold change vs veh, DIAPH2 / RFU, SKA2 / Fold change vs veh, SKA2 / RFU, AFF3 / Fold change vs veh, AFF3 / RFU, LMF1 / Fold change vs veh, LMF1 / RFU, IPO11 / Fold change vs veh, IPO11 / RFU, DFFB / Fold change vs veh, DFFB / RFU, FOXP1 / Fold change vs veh, FOXP1 / RFU, CARD8 / Fold change vs veh, CARD8 / RFU, STRN3 / Fold change vs veh, STRN3 / RFU, ADK / Fold change vs veh, ADK / RFU, RASSF2 / Fold change vs veh, RASSF2 / RFU, WIPF1 / Fold change vs veh, WIPF1 / RFU, LARP1B / Fold change vs veh, LARP1B / RFU, RASA1 / Fold change vs veh, RASA1 / RFU, RB1 / Fold change vs veh, RB1 / RFU, PPFIA1 / Fold change vs veh, PPFIA1 / RFU, MAT2A / Fold change vs veh, MAT2A / RFU, CCT5 / Fold change vs veh, CCT5 / RFU, WDR92 / Fold change vs veh, WDR92 / RFU, CUX1 / Fold change vs veh, CUX1 / RFU, TTC7A / Fold change vs veh, TTC7A / RFU, TMEM135 / Fold change vs veh, TMEM135 / RFU, DEPTOR / Fold change vs veh, DEPTOR / RFU, CPM / Fold change vs veh, CPM / RFU, DNAJB6 / Fold change vs veh, DNAJB6 / RFU, CACNA2D3 / Fold change vs veh, CACNA2D3 / RFU, DTX4 / Fold change vs veh, DTX4 / RFU, TFCP2 / Fold change vs veh, TFCP2 / RFU, GMCL1 /// GMCL1P1 / Fold change vs veh, GMCL1 /// GMCL1P1 / RFU, AEBP2 / Fold change vs veh, AEBP2 / RFU, SNHG1 /// SNORD22 /// SNORD25 /// SNORD26 /// SNORD27 /// SNORD28 /// SNORD29 /// SNORD31 / Fold change vs veh, SNHG1 /// SNORD22 /// SNORD25 /// SNORD26 /// SNORD27 /// SNORD28 /// SNORD29 /// SNORD31 / Fold change (Aza/veh), C12orf56 (ProbeSet 11735607_a_at) / Fold change (ACY-1035/veh), C12orf56 (ProbeSet 11735607_a_at) / Fold change (Aza/veh), FGFR1OP (ProbeSet 11751329_s_at) / Fold change (ACY-1035/veh), FGFR1OP (ProbeSet 11751329_s_at) / Fold change (Aza/veh), VPS36 (ProbeSet 11739960_a_at) / Fold change (ACY-1035/veh), VPS36 (ProbeSet 11739960_a_at) / RFU SYPL1 (11715823_x_at) / Fold change /veh SYPL1 (11715823_x_at) / RFU IGFBP7 (11715501_s_at) / Fold change /veh IGFBP7 (11715501_s_at) / RFU REEP3 (11722064_at) / Fold change /veh REEP3 (11722064_at) / RFU IGLL1 (11728026_x_at) / Fold change /veh IGLL1 (11728026_x_at): dose or concentration left out as unconfirmed
# Conditions: ProbeSet 11724763_s_at; LIST D
smiles,measurement,value
Nc1ccc(-c2cccs2)cc1NC(=O)c1ccc2c(c1)cc(C1CC1)n2CCN1CCOCC1 [ACY-1035],"RFU, DEPTOR",104.61 RFU
